What was measured:
[1] = test system: BALB/c splenic CD4+ T cells; test: Survival and apoptosis of anti-CD3/anti-CD28 activated CD4+ T cells; type: cell-based, BALB/c mice
Description: The role of IAP family members in mature NKT cell survival was assessed. […] After 24 hours viable cells were quantified by trypan blue exclusion, and the resulting cell counts are depicted in FIG. 2A. Apoptotic cells were quantified in the cultures from FIG. 2A using flow cytometry with annexin V and 7-AAD (results are depicted in FIG. 2B).

BALB/c spleen cells = test: Cytokine secretion of α-galcer stimulated spleen cells (ELISA); type: cell-based, BALB/c mice; conditions: 500 nM, 48 hours, versus control compound
Description: In order to determine the functional consequences of IAP inhibition in NKT cells, spleen cells from BALB/c mice were stimulated with the NKT cell specific agonist α-galactosylceramide (α-galcer). […]. After 48 hours, cytokine levels were measured in the culture supernatants by ELISA, and the results are depicted in FIG. 3A (IFNγ) and FIG. 3B (IL-2). […].

splenic CD4+ T cells = test: IL-2 production of anti-CD3/anti-CD28 stimulated CD4+ T cells (ELISA); type: cell-based, BALB/c mice
CD8+ T cells = test: Cytokine production of stimulated CD8+ T cells (ELISA); type: cell-based, C57BL/6 mice; conditions: anti-CD3 and anti-CD28; 48 hours
Description: Because the observed effect of IAP inhibition in T cells could still depend on alterations in NKT cell function, the consequences of IAP inhibition were assessed in NKT cell deficient CD1d knockout C57BL/6 mice. […] The effect of IAP inhibition was not limited to CD4+ T cells, as CD8+ T cells similarly produced excess IFN-γ and IL-2 after stimulation in the presence of IAP inhibitors (FIG. 5).

JNK and NF-κB pathways = test: Western blot of JNK phosphorylation and IκB degradation in stimulated CD4+ T cells; type: cell-based
Description: In order to investigate the mechanism linking IAP inhibition to enhanced, activation-dependent cytokine production, the effect of IAP inhibition on JNK phosphorylation and IκB degradation in stimulated CD4+ T cells was assessed by Western blot. […] Replicates were combined and cell lysates were analyzed by Western blot for the indicated proteins. PDI was used as a loading control.

[2] = test system: BALB/c spleen cells cultured with irradiated C57BL/6 spleen cells; test: Allo-reactivity: six day mixed lymphocyte reaction and restimulation; type: cell-based, BALB/c mice; conditions: 500 nM, six days
Description: After six days, cultures were harvested and cytokine production and spleen cell proliferation was analyzed. […] Cytokines were measured in cell supernatants by ELISA. […] At the conclusion of the cultures described in FIG. 9A, total viable cells were counted by trypan blue exclusion and immune cell subsets were identified by flow cytometry using the markers indicated in FIG. 9B. […] Substantial B cell proliferation occurred in IAP inhibited cultures (FIG. 9B). The activation enhancing effects of IAP inhibition were readily reversed; in allo-reactive T cells, secondary stimulations with anti-CD3 in the absence of inhibitors led to equivalent responses regardless of the previous culture conditions (FIG. 10). Cells stimulated in a six day mixed lymphocyte reaction were recovered and restimulated with anti-CD3 for 48 hours. Cytokines were measured in culture supernatants by ELISA. Sample labels indicated in FIG. 10 refer to the treatment used during the primary stimulation.

[3] = test system: CD4+ T cells from MLIAP transgenic mice; test: IL-2 production of ML-IAP transgenic CD4+ T cells (ELISA); type: cell-based, BALB/c mice; conditions: anti-CD3 and anti-CD28; 48 hours
Source text: Whether overexpression of ML-IAP, an endogenous SMAC binding protein, could alter the response of T cells to activating stimuli was also examined.

B16 mouse melanoma cells = test: B16 vaccination and live tumor challenge in vivo; set-up: species or system mice; conditions: single oral dose 150 mg/kg in combination with irradiated B16 vaccine; compared with LBW-242 or vaccine alone; days 7-16
Description: . Irradiated B16 mouse melanoma cells (vaccine) were administered to mice on days −14 and −7 with or without a single oral dose of LBW-242 (150 mg/kg). Live B16 tumor cells were implanted into the mice on day 0 (challenge). Tumor volume was measured at 7, 10, 13 and 16 days following the live cell implant. […].

[4] = test system: CD4+ T cells from XIAP KO mice; test: IL-2 production of XIAP knockout CD4+ T cells (ELISA); conditions: anti-CD3 and anti-CD28; 48 hours; versus LCV-843
[5] = test system: bone marrow derived dendritic cells; test: IL-12 p40 production of bone marrow derived dendritic cells (ELISA); conditions: 500 nM; cluster disruption; 24 hours
B cells = conditions: 500 nM; anti-IgM and anti-CD40; 96 hours; compared to control cells
Description: Because the JNK and NF-κB pathways play important roles in signaling down stream of a wide range of immune receptors, we analyzed the effect of IAP inhibitors in several additional immune populations. […] IL-6 was measured in the culture supernatant by ELISA.

[6] = 500 nM, anti-CD3 and anti-CD28, 24 hours
[7] = versus control compound LCV-843

Which results are given for `CN[C@H](C)C(=O)N[C@@H](C(=O)N1CCC2CCN(CCc3ccccc3)CC21)C1CCCCC1` (stereo in doubt) [LBW-242, N-[1-cyclohexyl-2-oxo-2-(6-phenethyl-octahydro-pyrrolo[2,3-c]pyridin-1-yl)-ethyl]-2-methylamino-propionamide]?
NKT cells in culture (anti-CD3 and α-galcer loaded CD1d tetramers) ([1]; 500 nM, 24 hours): still detectable in culture at normal frequencies; apoptosis (annexin V and 7-AAD) [1, 6]: nor did it contribute to apoptosis; total number of T cells (viable cells, trypan blue exclusion) [1, 6]: did not alter; apoptosis in the absence of stimulation ([1]; no stimulation): no discernible effect; IFN-γ secretion (BALB/c spleen cells): increased secretion; IL-2 secretion (BALB/c spleen cells): increased secretion; effects from IAP inhibition in the absence of stimulation (splenic CD4+ T cells; isotype control, no stimulation): No effects; IL-2 production (splenic CD4+ T cells; unfractionated BALB/c or C57BL/6 CD4+ T cells, anti-CD3 and anti-CD28, 48 hours): similar, dose-dependent effect; IFN-γ production (CD8+ T cells): excess; IL-2 production (CD8+ T cells): excess; bcl-10 levels in activated T cells (JNK and NF-κB pathways; 500 nM): did not lead to a detectable change; activation of JNK and NF-κB pathways (JNK phosphorylation, IκB degradation) (JNK and NF-κB pathways; 500 nM, anti-CD3 and anti-CD28, versus control compound LCV-843): activated more rapidly; JNK phosphorylation and IκB degradation in the absence of stimulation (JNK and NF-κB pathways; no stimulation): No changes; B cell proliferation [2]: Substantial; CD4 T cell proliferation [2]: significant; IFN-γ secretion [2, 7]: significantly enhanced; IL-2 levels [2, 7]: significantly reduced; reduced IL-2 secretion of ML-IAP transgenic T cells [3]: could be modulated; tumor burden following challenge with live B16 cells (B16 mouse melanoma cells): reduced; cytokine (IL-2) secretion of XIAP deficient T cells [4]: only a small increase; IL-12 p40 production, partially activated DCs [5]: increased; IL-6 production (B cells): increased
